In brackets after ≈: the same amount, converted by molar mass. Where two headings read alike, the source gives them in different places.
Columns and labels:
[1] = tested on: SK-BR-3 human mammary carcinoma cells; assay: Crystal violet growth inhibition assay, 48 hour exposure; format: cell-based
Description: (§1) This experiment was performed using the crystal violet growth inhibition assay. Cells with varying degrees of FAS activity were plated at 5000 cells per well in 96 well plates in RPMI-1640 with 10% heat-inactivated fetal bovine serum. After 72 hours of incubation in a humidified 95% air: 5% CO2 atmosphere, varying concentrations (0-500 µg/ml) of TOFA (5-tetradecyloxyl)-2-furoic acid were added and cultures were re-incubated for 48 hours. Plates were then removed and stained with crystal violet as described. Absorbance readings were averaged for each concentration of agent (n=4), control (n=8), and background (n=8). Background readings were subtracted. The concentration of TOFA is plotted against growth (as % of control growth) in Figure 15.
In these experiments, cells were plated at 5000 cells per well in a 96-well microtiter plate and maintained in RPMI-1640 with 10% heat-inactivated fetal bovine serum for 72 hours. Next, the compounds indicated in Table 4 were added, and cells were incubated for an additional 48 hours. Growth inhibition was then measured using the crystal violet method.

[2] = tested on: MCF-7 cells; assay: 14C-acetate incorporation into cholesterol; format: cell-based, human; details: cerulenin 0, 2.5, 5.0 or 10.0 µg/ml; 6 hours
Description: (§2) Measurement of endogenous fatty acid incorporation into acyl-glycerides: For each cell type, 200,000 cells were plated in triplicate for non-polar and polar lipid analysis. Following overnight growth, each well of cells was incubated for 2 hours with 1 µCi ^14C acetate. ^14C-labeled lipids were extracted as above, and dried under N2. For analysis of non-polar lipids, samples were resuspended in 10 ul chloroform and spotted on silica gel N-HR (Brinkmann) and chromatographed in hexane:ethyl ether:acetic acid, 65:25:4 by volume. Cholesterol, palmitic acid, tripalmitin, and cholesterol palmitate (Matreya) were run as controls at 50 µg each. […] 50 µg each of cholesterol, phosphatidyl ethanolamine, lecithin, and lysolecithin (Matreya) were run as controls. ^14C-labeled lipids were detected and quantified using a Bioscan System 2000 imaging scanner with Autochanger 3000. […] Phosphatidylcholine and triglycerides were the predominant acyl-glycerides detected.
(§3) Measurement of endogenous fatty acid incorporation into acyl-glycerides and cholesterol: For each cell type, 200,000 cells were plated in triplicate for non-polar and polar lipid analysis for each drug dose in 24 well plates. […] For the last two hours of cerulenin incubation, 1 µCi of ^14C acetate was added per well. ^14C-labeled lipids were then extracted, chromatographed, and detected as described above. […]

[3] = tested on: SKBR3 cells; assay: 14C-acetate incorporation into cholesterol; format: cell-based, human; details: cerulenin 0, 2.5, 5.0 or 10.0 µg/ml; 6 hours
Description: as §2, §3

[4] = tested on: MCF-7 cells; assay: Clonogenic assay; format: cell-based, human; details: 10 µg/ml; exposure time 24 hours
Description: Clonogenic assay: One million cells were plated in 25 cm sq. flasks. […] Cells were then trypsinized to a single cell suspension and plated in 16 mm dishes at 1000 or 500 cells per dish in triplicate. Following 3 days incubation for ZR-75-1 and MCF-7 cells, and 7 days for SKBR3 cells, colonies were counted and expressed as the percentage of the untreated control.

[5] = tested on: Dupro-1; assay: Population doubling assay, viable cell count (trypan blue); format: cell-based; details: Homo sapiens; 48-hour exposure; relative to untreated cultures; read-out: concentration giving 50% inhibition of population doubling
Description: (§4) TSU-pr1 and Dupro-1 cell lines were plated in RPMI-1640 with 10% fetal bovine serum at 3 X 10^5 and 1 X 10^5 cells respectively/T25 flask in a humidified atmosphere of 95% air: 5% CO2. After 24 hours, initial plating density was measured. In addition, media was replaced (control) or cerulenin was added at 2.5-10 µg/ml to duplicate cultures. Forty-eight hours later, cells were trypsinized and viable cells (trypan blue excluding) counted. The number of population doublings was estimated.

[6] = tested on: TSU-pr1; assay: as above; format: cell-based; details: Homo sapiens, 48-hour exposure, relative to untreated cultures, read-out: concentration giving 50% inhibition of population doubling
Description: as §4

[7] = target: T1, OA-519 fatty acid synthase (Homo sapiens, UniProt P49327); assay: Spectrophotometric fatty acid synthase assay (NADPH oxidation at 340 nm); format: biochemical
T1 construct: endogenous in cells; host or cells: ZR-75-1 breast carcinoma cell line (protein purified from the lysate)
T1 sequence (P49327 2-2511 limits assumed): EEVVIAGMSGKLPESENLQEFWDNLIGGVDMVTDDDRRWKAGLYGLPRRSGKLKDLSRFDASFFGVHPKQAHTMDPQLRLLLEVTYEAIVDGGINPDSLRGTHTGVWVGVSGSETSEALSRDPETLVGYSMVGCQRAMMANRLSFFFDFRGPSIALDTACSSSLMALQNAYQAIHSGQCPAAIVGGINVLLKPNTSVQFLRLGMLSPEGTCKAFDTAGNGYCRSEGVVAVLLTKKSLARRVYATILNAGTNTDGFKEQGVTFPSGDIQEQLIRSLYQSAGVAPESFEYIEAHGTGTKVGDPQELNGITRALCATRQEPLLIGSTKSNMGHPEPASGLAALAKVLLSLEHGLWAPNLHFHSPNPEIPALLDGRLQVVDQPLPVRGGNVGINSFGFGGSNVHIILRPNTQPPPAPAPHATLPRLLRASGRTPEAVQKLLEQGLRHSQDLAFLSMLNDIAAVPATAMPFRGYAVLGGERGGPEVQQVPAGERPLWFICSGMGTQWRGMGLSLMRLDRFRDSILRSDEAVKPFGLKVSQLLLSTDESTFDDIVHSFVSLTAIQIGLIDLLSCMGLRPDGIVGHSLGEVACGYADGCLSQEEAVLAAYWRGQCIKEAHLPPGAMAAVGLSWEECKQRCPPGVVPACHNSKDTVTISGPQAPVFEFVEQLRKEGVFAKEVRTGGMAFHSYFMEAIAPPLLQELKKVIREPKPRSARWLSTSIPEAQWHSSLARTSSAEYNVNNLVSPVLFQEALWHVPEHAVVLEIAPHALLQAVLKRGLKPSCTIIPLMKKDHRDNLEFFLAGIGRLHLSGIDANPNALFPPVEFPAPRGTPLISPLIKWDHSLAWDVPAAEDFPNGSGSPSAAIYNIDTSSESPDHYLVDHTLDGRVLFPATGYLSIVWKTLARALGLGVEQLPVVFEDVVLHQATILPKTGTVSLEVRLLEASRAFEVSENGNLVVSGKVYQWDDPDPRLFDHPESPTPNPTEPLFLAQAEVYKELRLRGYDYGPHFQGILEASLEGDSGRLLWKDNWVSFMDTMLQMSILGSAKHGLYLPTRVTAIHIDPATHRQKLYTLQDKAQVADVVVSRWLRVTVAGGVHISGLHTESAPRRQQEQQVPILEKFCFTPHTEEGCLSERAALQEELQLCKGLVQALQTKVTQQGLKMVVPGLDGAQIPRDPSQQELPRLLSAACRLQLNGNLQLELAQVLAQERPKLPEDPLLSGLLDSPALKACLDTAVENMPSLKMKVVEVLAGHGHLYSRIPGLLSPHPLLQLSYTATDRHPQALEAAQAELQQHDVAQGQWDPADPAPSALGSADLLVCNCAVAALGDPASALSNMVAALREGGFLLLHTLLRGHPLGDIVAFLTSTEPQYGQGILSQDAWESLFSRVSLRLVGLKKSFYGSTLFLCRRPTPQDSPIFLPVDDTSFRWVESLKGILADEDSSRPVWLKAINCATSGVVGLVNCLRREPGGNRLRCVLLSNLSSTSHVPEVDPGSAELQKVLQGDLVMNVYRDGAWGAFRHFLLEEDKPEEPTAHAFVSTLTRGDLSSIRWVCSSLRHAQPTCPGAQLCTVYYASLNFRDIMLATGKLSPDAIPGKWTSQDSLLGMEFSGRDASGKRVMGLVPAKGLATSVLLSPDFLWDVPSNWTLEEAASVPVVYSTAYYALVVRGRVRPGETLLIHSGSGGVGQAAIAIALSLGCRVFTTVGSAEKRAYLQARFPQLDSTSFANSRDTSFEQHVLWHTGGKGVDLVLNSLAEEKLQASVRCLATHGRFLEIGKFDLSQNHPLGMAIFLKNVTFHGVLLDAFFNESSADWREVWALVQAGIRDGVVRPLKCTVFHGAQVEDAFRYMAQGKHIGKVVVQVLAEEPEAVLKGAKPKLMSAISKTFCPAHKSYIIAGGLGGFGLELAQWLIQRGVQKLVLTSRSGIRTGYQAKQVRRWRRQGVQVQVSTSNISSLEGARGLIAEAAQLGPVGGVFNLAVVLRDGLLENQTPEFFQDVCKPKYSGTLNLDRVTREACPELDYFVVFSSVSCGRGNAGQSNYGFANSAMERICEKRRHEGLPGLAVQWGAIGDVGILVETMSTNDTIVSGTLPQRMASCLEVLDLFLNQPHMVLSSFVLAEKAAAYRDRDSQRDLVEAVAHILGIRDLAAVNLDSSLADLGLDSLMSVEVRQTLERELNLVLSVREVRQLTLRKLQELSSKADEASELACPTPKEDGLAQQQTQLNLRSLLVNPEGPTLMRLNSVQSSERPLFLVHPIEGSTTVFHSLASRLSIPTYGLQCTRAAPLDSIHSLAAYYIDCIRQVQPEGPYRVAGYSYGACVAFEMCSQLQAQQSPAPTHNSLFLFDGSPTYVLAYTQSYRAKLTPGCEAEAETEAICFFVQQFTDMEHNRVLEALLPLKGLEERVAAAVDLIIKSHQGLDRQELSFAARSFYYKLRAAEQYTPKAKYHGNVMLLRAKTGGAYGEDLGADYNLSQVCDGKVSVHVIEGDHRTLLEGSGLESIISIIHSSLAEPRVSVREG
Description: Spectrophotometric fatty acid synthase assay: The fatty acid synthase assay was performed in a total volume of 451 µl with the following components: 18.88 µg of purified OA-519 fatty acid synthase from the ZR-75-1 breast carcinoma cell line as described in Example 2, 25 nanomoles acetyl-CoA, 75 nanomoles NADPH, and 50 µl of 1 molar potassium phosphate, pH 6.6 at 25°C. The substrate malonyl-CoA was added at concentrations of 0.5 and 0.6 micromolar in the presence of 0, 9.9, 148, 198, or 397 micromolar cerulenin. HPLC grade water was added to achieve a final volume of 451 µl for all assays.
The enzyme, NADPH, acetyl-CoA, phosphate, cerulenin, and water were combined, vortexed, and incubated in a Beckman DU 650 spectrophotometer at 37°C. Oxidation of NADPH was monitored at 340 nm without substrate to determine background for 2 min. Malonyl-CoA was then added to the reaction cuvette, mixed, and incubated at 37°C while NADPH oxidation was determined at 10 second intervals at 340 nm in the spectrophotometer for a total of 2 min. All determinations were performed in duplicate.
Results: The spectrophotometric data was plotted according to Dixon (Dixon, M., Biochem. J., 55:170-171, 1953) which graphs inhibitor concentration versus 1/v for each given substrate concentration. […]

[8] = tested on: normal human fibroblasts; assay: In vitro growth inhibition assay (crystal violet) with oleic acid supplement; format: cell-based; details: for effect on normal human fibroblasts: standard in vitro growth inhibition assays
Description: (§5) In vitro growth inhibition assays for OA-519 inhibition were performed using ZR-75-1 cells or normal human fibroblasts which were grown to confluence, and then 25,000 cells were plated in 1:1 conditioned:fresh medium (RPMI with 10% fetal calf serum) supplemented at a physiologic level to 0.5 millimolar oleic acid bound to previously delipidized bovine serum albumin. Cells were allowed to attach and grow overnight. At time 0, drugs diluted in RPMI medium with 10% fetal calf serum were added to achieve the following concentrations: 50 µg/ml to 0.01 µg/ml with serial two-fold dilutions including no drug and empty well controls. Each concentration was performed in quadruplicate and time points were taken at 4, 8, 24, and 48 h. After drug treatment, cells were stained with crystal violet, solubilized in SDS, and read on a Molecular Diagnostics automated plate reader at 570 nm.

[9] = tested on: ZR-75-1 cells; assay: Oleate rescue from cerulenin growth inhibition; format: cell-based, human; details: 10 µg/ml cerulenin for 24 hours; 1.5 mM oleate
Description: ZR-75-1 cells (5,000 per well) were plated in 96 well microtiter plates in medium supplemented with 0, 0.5, 1.0 or 1.5 mM oleate bound to delipidized bovine serum albumin at a molar ration of 4:1. After 18 hours incubation, cerulenin was added at a dose of 10 µg/ml. Cells were stained and assayed as in Example 10 after 24 hours (Figure 17, upper line) or 48 hours (lower line). The middle line of Figure 17 represents cells which were re-fed at 24 hours with medium containing the respective oleate concentration without cerulenin and assayed after a 48 hour total incubation. Error bars represent standard error of the mean.

[10] = tested on: H125 lung carcinoma line; assay: Growth inhibition assay without oleic acid, single 24 h time point; format: cell-based; details: no oleic acid, line with 11.6 picomoles per minute enzyme activity
Description: as §5
Growth Inhibition Assay: Anti-proliferative activity of cerulenin for each cell line was determined using the same assay and drug concentrations described in Example 5, except that no oleic acid was added and a single 24 h time point was taken.

[11] = target: viral HIV protease (Human immunodeficiency virus type 1 group M subtype B, UniProt P04585); details: cited from earlier work
[12] = tested on: ZR-75-1 cells; assay: In vitro growth inhibition assay (crystal violet) with oleic acid supplement; format: cell-based, human; details: for effect on carcinoma cells: standard in vitro growth inhibition assays
Description: as §5

[13] = tested on: six cell lines listed in Table 3; assay: 14C-acetate incorporation into acyl-glycerides; format: cell-based, human; details: cerulenin 0, 2.5, 5.0 or 10.0 µg/ml; 6 hours
Description: as §2, §3

[14] = tested on: SW480; assay: Crystal violet growth inhibition assay, 48 hour exposure; format: cell-based; details: Homo sapiens, read-out: ID50 (the source's name)
Description: as §1

[15] = tested on: H'27; assay: as above; format: cell-based; details: Homo sapiens, read-out: ID50 (the source's name)
Description: as §1

[16] = tested on: ZR-75-1; assay: as above; format: cell-based; details: Homo sapiens, read-out: ID50 (the source's name)
Description: as §1

[17] = target: condensing enzyme (Saccharomyces cerevisiae, UniProt P19097); details: report of Morisaki, et. al.; cited from earlier work
[18] = tested on: Raji cells; details: cited from earlier work
[19] = tested on: Hela cells; details: cited from earlier work
[20] = tested on: Vero; details: cited from earlier work
[21] = target: rat liver acyl-CoA synthetase; details: read-out: concentration causing 50% inhibition; cited from earlier work
[22] = tested on: ZR-75-1 cells; assay: Triacsin-C and cerulenin synergy, crystal violet growth inhibition; format: cell-based; details: Homo sapiens, ZR-75-1, 24 h
Description: 96 well microtiter plates were plated with ZR-75-1 cells at 25,000 cells/well and incubated overnight (18 h) at 37° C in 5% CO2. Triacsin-C was added to achieve the following micromolar concentrations in the presence of 0, 2.5, 5.0 or 10.0 µg/ml cerulenin: 50, 25, 12.5, 6.2, 3.1, 1.6, 0.8, 0.4, 0.2, 0.1 and 0. Each concentration was performed in quadruplicate. Cells were incubated for 24 hours, washed in PBS, solubilized in 1% SDS, stained with 0.2% crystal violet in 2% ethanol, and read at 490 nm on a Molecular Diagnostics plate reader.

[23] = SK-BR-3, 48 h, read-out: ID50 (µg/ml)
[24] = SK-BR-3, 48 hours, dose giving 50% reduction of control absorbance, quadruplicate, read-out: ID50 (the source's name)

CCC/C(=N\OCC)C1=C(O)CC(CC(C)SCC)CC1=O (centres unmarked) [Sethoxydim]
IC50 [1, 23]: 9.5 µg/mL (≈ 29 µM)

C/C=C/C/C=C/CCC(=O)[C@H]1O[C@H]1C(N)=O [cerulenin, (2S) (3R) 2,3-epoxy-4-oxo-7,10 dodecadienoyl amide]
cholesterol synthesis [2]: mild inhibition
cholesterol synthesis [3]: stimulation
cell kill [4]: greater than three logs of cell kill
IC50 [5]: 3 to 4 µg/mL (≈ 13.4 to 17.9 µM)
IC50 [6]: 3 to 4 µg/mL (≈ 13.4 to 17.9 µM)
Ki ([7]; for the substrate malonyl-CoA, Dixon plot, enzyme purified from ZR-75-1, read-out: apparent Ki): 32 µM
type of inhibition of OA-519 fatty acid synthase activity ([7]; purified OA-519): non-competitive inhibitor
effect on growth ([8]; cerulenin 6.25 µg/ml, 0.5 millimolar oleic acid): unaffected
effect on normal human fibroblasts [8]: little effect
reversal of growth inhibition by oleate [9]: virtually complete reversal of growth inhibition
growth inhibition [10]: 48%
concentration at which inhibition occurs [11]: 5 mg/mL
inhibition at 6.25 µg/mL ([12]; Homo sapiens, ZR-75-1, cerulenin 6.25 µg/ml, by 48 h, 0.5 millimolar oleic acid, read-out: growth inhibited): > 80%
effect on carcinoma cells [12]: anti-proliferative
incorporation of 14C-acetate into acyl-glycerides [13]: consistently and significantly inhibited in a dose-related manner
IC50 [1, 24]: 3.6 µg/mL (≈ 16.1 µM)

O=C(O)C(=O)CBr [Bromopyruvate]
IC50 [1, 23]: 52 µg/mL (≈ 311 µM)

Cc1cc2c(C(C)C)c(O)c(O)c(C=O)c2c(O)c1-c1c(C)cc2c(C(C)C)c(O)c(O)c(C=O)c2c1O [Gossypol]
IC50 [1, 23]: 3.1 µg/mL (≈ 5.98 µM)

NC(=O)CI [Iodoacetamide]
IC50 [1, 23]: 0.3 µg/mL (≈ 1.62 µM)

CCCCCCCCCCCCCCOc1ccc(C(=O)O)o1 [TOFA, 5 (tetradecyloxy)-2-furoic acid]
IC50 [14]: 59.8 µg/mL (≈ 184 µM)
IC50 [15]: 44.7 µg/mL (≈ 138 µM)
IC50 [16]: 0.8 µg/mL (≈ 2.47 µM)
IC50 [1, 24]: 4.6 µg/mL (≈ 14.2 µM)

CC(C)(COP(=O)(O)OP(=O)(O)OC[C@H]1O[C@@H](n2cnc3c(N)ncnc32)[C@H](O)[C@@H]1OP(=O)(O)O)[C@@H](O)C(=O)NCCC(=O)NCCSCC(=O)O [S-carboxymethyl CoA]
IC50 [1, 24]: 61.4 µg/mL (≈ 74.4 µM)

CCCCCCCCC(=O)C1OC1C(N)=O (centres unmarked) [Tetrahydrocerulenin]
times less potent than cerulenin [17]: 80-150 times

CCC/C=C/C/C=C/C=C/C=NN=NO [Triacsin C, 1-hydroxy-3-(E, E, E-2', 4', 7' - undecatrienylidine) triazene]
concentration causing growth inhibition [18]: 1.0 µM
growth inhibition [19]: inhibit growth
growth inhibition [20]: inhibit growth
IC50 [21]: 8.7 µM
IC50 ([22]; cerulenin added at a level approximating its ID50): < 1 µM
IC50 ([22]; triacsin-C alone, read-out: ID50 (the source's name)): ~15 µM

Nc1nc(N)nc(Nc2ccc([As]3SCC(CO)S3)cc2)n1 (centres unmarked) [melarsoprol]
effect on normal human fibroblasts [8]: little effect
effect on carcinoma cells [12]: anti-proliferative

CCN1C(=O)C=CC1=O [N-ethylmaleimide]
IC50 [1, 23]: 0.9 µg/mL (≈ 7.19 µM)

Source: patent EP0651636B1, “CHEMOTHERAPY FOR CANCER” (THE JOHNS HOPKINS UNIVERSITY, priority 1992, dated 1994)
